pIC50: −log10 of the molar value.
Assays:
U937 cells = experiment: Cellular assay in U937 cells to measure activity of RIPK1-inhibitors on cell death (necroptosis); format: cell-based; settings: Homo sapiens, U-937, TNFα/zVAD.fmk induced cell death (necroptosis), overnight (18 to 24 hrs), 37° C., MTS readout
[1] = target: T1, hRIPK1 (aa 1-375) fusion protein (Homo sapiens, UniProt Q13546); experiment: Receptor-Interacting Protein Kinase 1 inhibition, ADP Glo assay (conversion of ATP to ADP due to autophosphorylation); format: biochemical; settings: ATP 50 μM, 30 min preincubation, 240 min incubation, room temperature, DMSO 1%
T1 construct: hRIPK1 (aa 1-375) fusion protein
T1 sequence (Q13546 1-375): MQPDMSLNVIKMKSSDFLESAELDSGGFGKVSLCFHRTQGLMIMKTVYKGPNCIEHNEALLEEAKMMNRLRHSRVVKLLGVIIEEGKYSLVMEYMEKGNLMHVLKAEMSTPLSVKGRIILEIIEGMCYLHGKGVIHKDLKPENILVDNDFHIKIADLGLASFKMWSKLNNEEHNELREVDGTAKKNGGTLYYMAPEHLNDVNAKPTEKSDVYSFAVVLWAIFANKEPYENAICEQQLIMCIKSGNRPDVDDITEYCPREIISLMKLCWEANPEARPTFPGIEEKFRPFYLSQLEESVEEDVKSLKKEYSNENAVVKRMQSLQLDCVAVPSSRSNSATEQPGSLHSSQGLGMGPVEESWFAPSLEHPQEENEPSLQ
How it was run: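 hRIPK1 (aa 1-375) fusion protein (3.6 μg/ml final) was preincubated 30 min at rt with compound (33300-1.69 nM, 1% DMSO), then 50 μM ATP was added for 240 min at rt. ADP from autophosphorylation was measured by ADP-Glo luminescence and curves fitted by nonlinear regression.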

Structure (SMILES)	pIC50 [1]	pIC50 (U937 cells)
CC1(C)OC(=O)N(c2ccc(F)c(OC[C@H]3CC[C@H](C(=O)N4OCC[C@H]4c4cc(F)cc(C#N)c4)CC3)c2)C1=O [Compound 79, trans-3-((S)-2-(4-((5-(5,5-dimethyl-2,4-dioxooxazolidin-3-yl)-2-fluorophenoxy)methyl)cyclohexane-1-carbonyl)isoxazolidin-3-yl)-5-fluorobenzonitrile]	7.70	8.05
CN1CC(=O)N(c2ccc(Cl)c(OC[C@H]3CC[C@H](C(=O)N4OCC[C@H]4c4cc(F)cc(C#N)c4)CC3)c2)C1=O [Compound 80, trans-3-((S)-2-(4-((2-chloro-5-(3-methyl-2,5-dioxoimidazolidin-1-yl)phenoxy)methyl)cyclohexane-1-carbonyl)isoxazolidin-3-yl)-5-fluorobenzonitrile]	6.79	6.91
CC1(C)OC(=O)N(c2ccc(F)c(O[C@H]3CC[C@@H](C(=O)N4OCC[C@H]4c4cc(F)cc(C#N)c4)CC3)c2)C1=O [Compound 81, cis-3-((S)-2-(4-(5-(5,5-dimethyl-2,4-dioxooxazolidin-3-yl)-2-fluorophenoxy)cyclohexane-1-carbonyl)isoxazolidin-3-yl)-5-fluorobenzonitrile]	7.04	6.07
N#Cc1cc(F)cc([C@@H]2CCON2C(=O)[C@H]2CC[C@@H](Oc3ccc(F)c(C#N)c3)CC2)c1 [Compound 82, cis-5-((4-((S)-3-(3-cyano-5-fluorophenyl)isoxazolidine-2-carbonyl)cyclohexyl)oxy)-2-fluorobenzonitrile]	7.36	6.41
N#Cc1cc(F)cc(OC[C@H]2CC[C@H](C(=O)N3OCC[C@H]3c3cncc(C#N)c3)CC2)c1 [Compound 83, trans-5-((S)-2-(4-((3-cyano-5-fluorophenoxy)methyl)cyclohexane-1-carbonyl)isoxazolidin-3-yl)nicotinonitrile]	7.47	7.64
O=C([C@H]1C[C@H](n2cnc3cc(F)ccc32)C1)N1OCC[C@H]1c1cccc(F)c1 [Compound 84, trans-(3-(5-fluoro-1H-benzo[d]imidazol-1-yl)cyclobutyl)((S)-3-(3-fluorophenyl)isoxazolidin-2-yl)methanone]	6.59	6.37
O=C([C@H]1C[C@@H](n2cnc3ccc(F)cc32)C1)N1OCC[C@H]1c1cc(F)cc(F)c1 [Compound 87, cis-((S)-3-(3,5-difluorophenyl)isoxazolidin-2-yl)(3-(6-fluoro-1H-benzo[d]imidazol-1-yl)cyclobutyl)methanone]	7.05	6.26
CN1CC(=O)N(c2ccc(Cl)c(OC[C@H]3CC[C@H](C(=O)N4OCC[C@H]4c4cncc(C#N)c4)CC3)c2)C1=O [Compound 88, trans-5-((S)-2-(4-((2-chloro-5-(3-methyl-2,5-dioxoimidazolidin-1-yl)phenoxy)methyl)cyclohexane-1-carbonyl)isoxazolidin-3-yl)nicotinonitrile]	7.33	6.34
Cn1ccn(-c2ccc(OC[C@H]3CC[C@H](C(=O)N4OCC[C@H]4c4cncc(C#N)c4)CC3)c(F)c2)c1=O [Compound 89, trans-5-((S)-2-(4-((2-fluoro-4-(3-methyl-2-oxo-2,3-dihydro-1H-imidazol-1-yl)phenoxy)methyl)cyclohexane-1-carbonyl)isoxazolidin-3-yl)nicotinonitrile]	7.74	7.89
Cc1cc(C)n(-c2ccc(OC[C@H]3CC[C@H](C(=O)N4OCC[C@H]4c4cncc(C#N)c4)CC3)c(F)c2)n1 [Compound 90, trans-5-((S)-2-(4-((4-(3,5-dimethyl-1H-pyrazol-1-yl)-2-fluorophenoxy)methyl)cyclohexane-1-carbonyl)isoxazolidin-3-yl)nicotinonitrile]	7.68	7.64
N#Cc1cc(F)cc([C@@H]2CCON2C(=O)[C@H]2CC[C@H](COc3cc(C#N)ccn3)CC2)c1 [Compound 91, trans-2-[[4-[(3S)-3-(3-cyano-5-fluoro-phenyl)isoxazolidine-2-carbonyl]cyclohexyl]methoxy]pyridine-4-carbonitrile]	7.85	7.41
CC1(C)OC(=O)N(c2ccc(F)c(OC[C@H]3CC[C@H](C(=O)N4OCC[C@H]4c4cncc(C#N)c4)CC3)c2)C1=O [Compound 92, trans-5-((S)-2-(4-((5-(5,5-dimethyl-2,4-dioxooxazolidin-3-yl)-2-fluorophenoxy)methyl)cyclohexane-1-carbonyl)isoxazolidin-3-yl)nicotinonitrile]	7.38	6.64
N#Cc1cncc([C@@H]2CCON2C(=O)[C@H]2CC[C@H](COc3cc(C#N)ccn3)CC2)c1 [Compound 94, trans-5-((S)-2-(4-(((4-cyanopyridin-2-yl)oxy)methyl)cyclohexane-1-carbonyl)isoxazolidin-3-yl)nicotinonitrile]	7.24	6.86
O=C([C@H]1C[C@@H](n2ncc3cc(F)ccc32)C1)N1OCC[C@H]1c1cc(F)cc(F)c1 [Compound 96, cis-[(3S)-3-(3,5-difluorophenyl)isoxazolidin-2-yl]-[3-(5-fluoroindazol-1-yl)cyclobutyl]methanone]	7.33	6.04
O=C([C@H]1C[C@H](n2ncc3cc(F)ccc32)C1)N1OCC[C@H]1c1cc(F)cc(F)c1 [Compound 97, trans-[(3S)-3-(3,5-difluorophenyl)isoxazolidin-2-yl]-[3-(5-fluoroindazol-1-yl)cyclobutyl]methanone]	7.42	6.82
N#Cc1cc(F)cc([C@@H]2CCON2C(=O)[C@H]2C[C@H](n3ncc4cc(F)ccc43)C2)c1 [Compound 98, trans-3-fluoro-5-[(3S)-2-[3-(5-fluoroindazol-1-yl)cyclobutanecarbonyl]isoxazolidin-3-yl]benzonitrile]	7.39	6.44

Second part, led by results:

pIC50 [1]	Structure (SMILES)	pIC50 (U937 cells)
7.55	Cc1ccc(OC[C@H]2CC[C@H](C(=O)N3OCC[C@H]3c3cc(F)cc(C#N)c3)CC2)cc1C(N)=O [Compound 85, trans-5-((4-((S)-3-(3-cyano-5-fluorophenyl)isoxazolidine-2-carbonyl)cyclohexyl)methoxy)-2-methylbenzamide]	7.57
7.66	Cc1ccc(OC[C@H]2CC[C@H](C(=O)N3OCC[C@H]3c3cc(F)cc(F)c3)CC2)cc1C(N)=O [Compound 86, trans-5-((4-((S)-3-(3,5-difluorophenyl)isoxazolidine-2-carbonyl)cyclohexyl)methoxy)-2-methylbenzamide]	8.00
7.74	N#Cc1cc(F)cc([C@@H]2CCON2C(=O)[C@H]2CC[C@H](COc3ccnc(C#N)c3)CC2)c1 [Compound 93, trans-4-[[4-[(3S)-3-(3-cyano-5-fluoro-phenyl)isoxazolidine-2-carbonyl]cyclohexyl]methoxy]pyridine-2-carbonitrile]	7.89
7.82	N#Cc1ccc(OC[C@H]2CC[C@H](C(=O)N3OCC[C@H]3c3cncc(C#N)c3)CC2)nc1 [Compound 95, trans-5-((S)-2-(4-(((5-cyanopyridin-2-yl)oxy)methyl)cyclohexane-1-carbonyl)isoxazolidin-3-yl)nicotinonitrile]	7.46
7.15	N#Cc1cncc([C@@H]2CCON2C(=O)[C@H]2CC[C@H](COc3ccc(C(N)=O)cn3)CC2)c1 [Compound 99, trans-6-[[4-[(3S)-3-(5-cyano-3-pyridyl)isoxazolidine-2-carbonyl]cyclohexyl]methoxy]pyridine-3-carboxamide]	6.68
7.38	NC(=O)c1cccc(OC[C@H]2CC[C@H](C(=O)N3OCC[C@H]3c3cnccn3)CC2)c1 [Compound 100, trans-3-[[4-[(3S)-3-pyrazin-2-ylisoxazolidine-2-carbonyl]cyclohexyl]methoxy]benzamide]	6.86
7.40	NC(=O)c1cc(OC[C@H]2CC[C@H](C(=O)N3OCC[C@H]3c3cnccn3)CC2)ccc1F [Compound 101, trans-2-fluoro-5-[[4-[(3S)-3-pyrazin-2-ylisoxazolidine-2-carbonyl]cyclohexyl]methoxy]benzamide]	6.85
7.33	NC(=O)c1ccc(OC[C@H]2CC[C@H](C(=O)N3OCC[C@H]3c3cnccn3)CC2)nc1 [Compound 102, trans-6-[[4-[(3S)-3-pyrazin-2-ylisoxazolidine-2-carbonyl]cyclohexyl]methoxy]pyridine-3-carboxamide]	6.59
7.24	N#Cc1ccc(OC[C@H]2CC[C@H](C(=O)N3OCC[C@H]3c3cnccn3)CC2)nc1 [Compound 103, trans-6-[[4-[(3S)-3-pyrazin-2-ylisoxazolidine-2-carbonyl]cyclohexyl]methoxy]pyridine-3-carbonitrile]	7.01
7.62	N#Cc1cc(F)cc(OC[C@H]2CC[C@H](C(=O)N3OCC[C@H]3c3cnccn3)CC2)c1 [Compound 104, trans-3-fluoro-5-[[4-[(3S)-3-pyrazin-2-ylisoxazolidine-2-carbonyl]cyclohexyl]methoxy]benzonitrile]	7.52

Source: US20260317312A1, “ISOXAZOLIDINES AS RIPK1 INHIBITORS AND USE THEREOF” (GENZYME CORPORATION, priority 2023, published 2026)
